Legend:
Test in all cases: relative viability (nuclei count vs DMSO), 5 days (fraction); higher = more cells survive
COR-L 105 = system: COR-L 105
Procedure, shortened: (§1)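 One day after seeding in 1536-well plates, lung cancer cell lines were dosed by pin tool. Dosing was either single-drug or a fixed anchor-drug dose plus five library-drug doses (not always all listed) in √10 steps. After 5 days, nuclei were stained in one fix-and-stain step and counted on 4× images, and relative viability is the nuclei count of treated wells over that of vehicle wells, given as the median of duplicate plates.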

COR-L23 = system: COR-L23
Procedure, shortened: as §1

EKVX = system: EKVX
Procedure, shortened: as §1

HARA = system: HARA
Procedure, shortened: as §1

HOP-62 = system: HOP-62
Procedure, shortened: as §1

NCI-H1355 = system: NCI-H1355
Procedure, shortened: as §1

NCI-H1395 = system: NCI-H1395
Procedure, shortened: as §1

NCI-H1734 = system: NCI-H1734
Procedure, shortened: as §1

NCI-H1755 = system: NCI-H1755
Procedure, shortened: as §1

NCI-H1793 = system: NCI-H1793
Procedure, shortened: as §1

NCI-H1993 = system: NCI-H1993
Procedure, shortened: as §1

NCI-H2009 = system: NCI-H2009
Procedure, shortened: as §1

NCI-H2170 = system: NCI-H2170
Procedure, shortened: as §1

NCI-H2342 = system: NCI-H2342
Procedure, shortened: as §1

NCI-H2347 = system: NCI-H2347
Procedure, shortened: as §1

NCI-H322M = system: NCI-H322M
Procedure, shortened: as §1

NCI-H358 = system: NCI-H358
Procedure, shortened: as §1

NCI-H522 = system: NCI-H522
Procedure, shortened: as §1

NCI-H647 = system: NCI-H647
Procedure, shortened: as §1

NCI-H838 = system: NCI-H838
Procedure, shortened: as §1

PC-14 = system: PC-14
Procedure, shortened: as §1

SK-MES-1 = system: SK-MES-1
Procedure, shortened: as §1

UMC-11 = system: UMC-11
Procedure, shortened: as §1

Molecule CC(C)Oc1cc(Nc2nc(N[C@@H](C)c3ccc(F)cn3)ncc2Cl)n[nH]1 [AZ23] + Nc1ncn([C@H]2C[C@H](O)[C@@H](CO)O2)c(=O)n1 [Decitabine] (partner 2 µM) has a relative viability (COR-L 105; first compound 0.01 µM) of 0.547, a relative viability (COR-L 105; first compound 0.03162 µM) of 0.65 and a relative viability (COR-L 105; first compound 0.3162 µM) of 0.708. It also gave a relative viability (COR-L23; first compound 0.01 µM) of 0.361, a relative viability (COR-L23; first compound 0.03162 µM) of 0.497 and a relative viability (COR-L23; first compound 0.3162 µM) of 0.449. For the same molecule, the relative viability (EKVX; first compound 0.01 µM) was 0.395, the relative viability (EKVX; first compound 0.03162 µM) was 0.365 and the relative viability (EKVX; first compound 0.3162 µM) was 0.345. It also gave a relative viability (HARA; first compound 0.01 µM) of 0.621, a relative viability (HARA; first compound 0.03162 µM) of 0.581 and a relative viability (HARA; first compound 0.3162 µM) of 0.504. For the same molecule, the relative viability (HOP-62; first compound 0.01 µM) was 0.282, the relative viability (HOP-62; first compound 0.03162 µM) was 0.21 and the relative viability (HOP-62; first compound 0.3162 µM) was 0.195. The relative viability (NCI-H1355; first compound 0.01 µM) was 0.377, the relative viability (NCI-H1355; first compound 0.03162 µM) was 0.366 and the relative viability (NCI-H1355; first compound 0.3162 µM) was 0.333. The relative viability (NCI-H1395; first compound 0.03162 µM) was 0.713, the relative viability (NCI-H1395; first compound 0.3162 µM) was 0.704 and the relative viability (NCI-H1734; first compound 0.01 µM) was 0.532. The relative viability (NCI-H1734; first compound 0.03162 µM) was 0.521, the relative viability (NCI-H1734; first compound 0.3162 µM) was 0.482 and the relative viability (NCI-H1755; first compound 0.01 µM) was 0.844. The relative viability (NCI-H1755; first compound 0.03162 µM) was 0.705, the relative viability (NCI-H1755; first compound 0.3162 µM) was 0.697 and the relative viability (NCI-H1793; first compound 0.01 µM) was 0.594. The relative viability (NCI-H1793; first compound 0.03162 µM) was 0.559, the relative viability (NCI-H1793; first compound 0.3162 µM) was 0.414 and the relative viability (NCI-H1993; first compound 0.01 µM) was 0.514. It also gave a relative viability (NCI-H1993; first compound 0.03162 µM) of 0.626, a relative viability (NCI-H1993; first compound 0.3162 µM) of 0.513 and a relative viability (NCI-H2009; first compound 0.01 µM) of 0.406. It also gave a relative viability (NCI-H2009; first compound 0.03162 µM) of 0.356, a relative viability (NCI-H2009; first compound 0.3162 µM) of 0.396 and a relative viability (NCI-H2170; first compound 0.01 µM) of 0.482. The relative viability (NCI-H2170; first compound 0.03162 µM) was 0.475, the relative viability (NCI-H2170; first compound 0.3162 µM) was 0.483 and the relative viability (NCI-H2342; first compound 0.01 µM) was 0.716. It also gave a relative viability (NCI-H2342; first compound 0.03162 µM) of 0.778, a relative viability (NCI-H2342; first compound 0.3162 µM) of 0.649 and a relative viability (NCI-H2347; first compound 0.01 µM) of 0.652. For the same molecule, the relative viability (NCI-H2347; first compound 0.03162 µM) was 0.571, the relative viability (NCI-H2347; first compound 0.3162 µM) was 0.625 and the relative viability (NCI-H322M; first compound 0.01 µM) was 0.533. The relative viability (NCI-H322M; first compound 0.03162 µM) was 0.668, the relative viability (NCI-H322M; first compound 0.3162 µM) was 0.7 and the relative viability (NCI-H358; first compound 0.01 µM) was 0.261. It also gave a relative viability (NCI-H358; first compound 0.03162 µM) of 0.214, a relative viability (NCI-H358; first compound 0.3162 µM) of 0.179 and a relative viability (NCI-H522; first compound 0.01 µM) of 0.701. For the same molecule, the relative viability (NCI-H522; first compound 0.03162 µM) was 0.736, the relative viability (NCI-H522; first compound 0.3162 µM) was 0.679 and the relative viability (NCI-H647; first compound 0.01 µM) was 0.364. It also gave a relative viability (NCI-H647; first compound 0.03162 µM) of 0.415, a relative viability (NCI-H647; first compound 0.3162 µM) of 0.41 and a relative viability (NCI-H838; first compound 0.01 µM) of 0.487. The relative viability (NCI-H838; first compound 0.03162 µM) was 0.506, the relative viability (NCI-H838; first compound 0.3162 µM) was 0.44 and the relative viability (PC-14; first compound 0.01 µM) was 0.191. It also gave a relative viability (PC-14; first compound 0.03162 µM) of 0.213, a relative viability (PC-14; first compound 0.3162 µM) of 0.263 and a relative viability (SK-MES-1; first compound 0.03162 µM) of 0.382. The relative viability (SK-MES-1; first compound 0.3162 µM) was 0.357, the relative viability (UMC-11; first compound 0.01 µM) was 0.562 and the relative viability (UMC-11; first compound 0.03162 µM) was 0.747. It also gave a relative viability (UMC-11; first compound 0.3162 µM) of 0.587.
